Measured values: US9012611B2, “Use of 3,8,12,14, 17,20-oxo-substituted pregnene glycosides in the preparation of healthcare products, food additives and pharmaceuticals for the inhibition of appetite” (Institute of Materia Medica, Chinese Academy of Sciences, priority 2010, dated 2015)
Structures can show the parent of a compound that is named as a salt.

Key:
[1] = test system: female Wistar rat; experiment: Animal test in vivo: average food consumption (appetite inhibition); settings: positive control 15 mg/kg
Protocol: (§1) 6-7 weeks-old female Wistar rat (purchased from Shanghai Laboratory Animal Center of Chinese Academy of Sciences)(weight: 110-150 g) was raised alone in suspended metal cage. After the experimental rat was obtained, it was checked to make sure whether they were abnormal or had obvious disease signs. The rat can freely obtain the drinking-water and feed for rodent (RM1(E)AQC). The feeding cage was controlled to receive 12 h illumination (from 07:00 to 19:00) and to be in a dark environment for 12 h, and the room temperature and relative humidity were controlled to be 21±3° C. and 55±15% respectively and not to deviate the upper and lower limit. The rats were randomly divided into groups depending on the body weight according to random number table to make the average weight in each group are approximately equal. Before the test, the rats were pre-trained suitably for one week (from −7th day to −1st day) during which the consumptions of feed and drinking water were recorded.
(§2) Each group of drug to be tested, positive control group, and blank control group consisted of 5 rats, respectively. The tested drug and positive control drug were mixed with wheaten starch before the administration and formulated to suspension with required doses according to 10 mL/kg of administration volume. The positive control drug was sibutramine hydrochloride and the administration dosage was 15 mg/kg body weight. In the blank control group, only equal amount of starch was used to formulate suspension for administration by […] in a same volume. The administration time is the 1st day, 2nd day and 3rd day. The body weight of the rat, the consumption of the feed (the weight of the feeding hopper) and consumption of the drinking water (bottle weight) were recorded from the −7th day to the 7th day.

[2] = Animal test in vivo: average body weight; design: species or system rat; settings: positive control 15 mg/kg
Protocol: as §1, §2

Compound: CC(C)CC(N(C)C)C1(c2ccc(Cl)cc2)CCC1 (centres unmarked) [Positive control, sibutramine hydrochloride, reference compound]
- Average food consumptions ([1]; 1st day (administration day), Table 1, crude extract 300 mg/kg, others 50 mg/kg): 5.0 g
- Average food consumptions ([1]; 1st day (administration day), Table 4, wilfosides 50 mg/kg): 4 g
- Average food consumptions ([1]; 2nd day (administration day), Table 1, crude extract 300 mg/kg, others 50 mg/kg): 8.5 g
- Average food consumptions ([1]; 2nd day (administration day), Table 4, wilfosides 50 mg/kg): 7.6 g
- Average food consumptions ([1]; 3rd day (administration day), Table 1, crude extract 300 mg/kg, others 50 mg/kg): 13.0 g
- Average food consumptions ([1]; 3rd day (administration day), Table 4, wilfosides 50 mg/kg): 8.4 g
- Average food consumptions ([1]; 4th day (after administration on days 1-3), Table 1, crude extract 300 mg/kg, others 50 mg/kg): 14.0 g
- Average food consumptions ([1]; 4th day (after administration on days 1-3), Table 4, wilfosides 50 mg/kg): 10 g
- Average food consumptions ([1]; 5th day (after administration on days 1-3), Table 1, crude extract 300 mg/kg, others 50 mg/kg): 13.5 g
- Average food consumptions ([1]; 5th day (after administration on days 1-3), Table 4, wilfosides 50 mg/kg): 12.8 g
- Average food consumptions ([1]; 6th day (after administration on days 1-3), Table 1, crude extract 300 mg/kg, others 50 mg/kg): 14.5 g
- Average food consumptions ([1]; 6th day (after administration on days 1-3), Table 4, wilfosides 50 mg/kg): 14.4 g
- Average food consumptions ([1]; 7th day (after administration on days 1-3), Table 1, crude extract 300 mg/kg, others 50 mg/kg): 17.5 g
- Average food consumptions ([1]; 7th day (after administration on days 1-3), Table 4, wilfosides 50 mg/kg): 14.8 g
- Average food consumptions ([1]; −1st day (before administration), Table 1, crude extract 300 mg/kg, others 50 mg/kg): 14.5 g
- Average food consumptions ([1]; −1st day (before administration), Table 4, wilfosides 50 mg/kg): 13.2 g
- Average food consumptions ([1]; −2nd day (before administration), Table 1, crude extract 300 mg/kg, others 50 mg/kg): 14.5 g
- Average food consumptions ([1]; −2nd day (before administration), Table 4, wilfosides 50 mg/kg): 16 g
- Average food consumptions ([1]; −3rd day (before administration), Table 1, crude extract 300 mg/kg, others 50 mg/kg): 15.5 g
- Average food consumptions ([1]; −3rd day (before administration), Table 4, wilfosides 50 mg/kg): 12.8 g
- Average food consumptions ([1]; −4th day (before administration), Table 1, crude extract 300 mg/kg, others 50 mg/kg): 14.5 g
- Average food consumptions ([1]; −4th day (before administration), Table 4, wilfosides 50 mg/kg): 12.8 g
- Average food consumptions ([1]; −5th day (before administration), Table 1, crude extract 300 mg/kg, others 50 mg/kg): 14.5 g
- Average food consumptions ([1]; −5th day (before administration), Table 4, wilfosides 50 mg/kg): 14.8 g
- Average food consumptions ([1]; −6th day (before administration), Table 1, crude extract 300 mg/kg, others 50 mg/kg): 15.3 g
- Average food consumptions ([1]; −6th day (before administration), Table 4, wilfosides 50 mg/kg): 10.8 g
- Average food consumptions ([1]; −7th day (before administration), Table 1, crude extract 300 mg/kg, others 50 mg/kg): 11.5 g
- Average food consumptions ([1]; −7th day (before administration), Table 4, wilfosides 50 mg/kg): 10.4 g
- Average body weight ([2]; 1st day (administration day), Table 3, crude extract 300 mg/kg, others 50 mg/kg): 142.4 g
- Average body weight ([2]; 1st day (administration day), Table 6, wilfosides 50 mg/kg): 133.2 g
- Average body weight ([2]; 2nd day (administration day), Table 3, crude extract 300 mg/kg, others 50 mg/kg): 140 g
- Average body weight ([2]; 2nd day (administration day), Table 6, wilfosides 50 mg/kg): 128.4 g
- Average body weight ([2]; 3rd day (administration day), Table 3, crude extract 300 mg/kg, others 50 mg/kg): 141.6 g
- Average body weight ([2]; 3rd day (administration day), Table 6, wilfosides 50 mg/kg): 128.4 g
- Average body weight ([2]; 4th day (after administration on days 1-3), Table 3, crude extract 300 mg/kg, others 50 mg/kg): 146.8 g
- Average body weight ([2]; 4th day (after administration on days 1-3), Table 6, wilfosides 50 mg/kg): 132.4 g
- Average body weight ([2]; 5th day (after administration on days 1-3), Table 3, crude extract 300 mg/kg, others 50 mg/kg): 148.4 g
- Average body weight ([2]; 5th day (after administration on days 1-3), Table 6, wilfosides 50 mg/kg): 135.6 g
- Average body weight ([2]; 6th day (after administration on days 1-3), Table 3, crude extract 300 mg/kg, others 50 mg/kg): 153.6 g
- Average body weight ([2]; 6th day (after administration on days 1-3), Table 6, wilfosides 50 mg/kg): 138.4 g
- Average body weight ([2]; 7th day (after administration on days 1-3), Table 3, crude extract 300 mg/kg, others 50 mg/kg): 158.8 g
- Average body weight ([2]; 7th day (after administration on days 1-3), Table 6, wilfosides 50 mg/kg): 142 g
- Average body weight ([2]; −1st day (before administration), Table 3, crude extract 300 mg/kg, others 50 mg/kg): 154.8 g
- Average body weight ([2]; −1st day (before administration), Table 6, wilfosides 50 mg/kg): 145.6 g
- Average body weight ([2]; −2nd day (before administration), Table 3, crude extract 300 mg/kg, others 50 mg/kg): 152.8 g
- Average body weight ([2]; −2nd day (before administration), Table 6, wilfosides 50 mg/kg): 144.4 g
- Average body weight ([2]; −3rd day (before administration), Table 3, crude extract 300 mg/kg, others 50 mg/kg): 152 g
- Average body weight ([2]; −3rd day (before administration), Table 6, wilfosides 50 mg/kg): 140.8 g
- Average body weight ([2]; −4th day (before administration), Table 3, crude extract 300 mg/kg, others 50 mg/kg): 149.6 g
- Average body weight ([2]; −4th day (before administration), Table 6, wilfosides 50 mg/kg): 138 g
- Average body weight ([2]; −5th day (before administration), Table 3, crude extract 300 mg/kg, others 50 mg/kg): 145.6 g
- Average body weight ([2]; −5th day (before administration), Table 6, wilfosides 50 mg/kg): 135.6 g
- Average body weight ([2]; −6th day (before administration), Table 3, crude extract 300 mg/kg, others 50 mg/kg): 144.8 g
- Average body weight ([2]; −6th day (before administration), Table 6, wilfosides 50 mg/kg): 132.8 g
- Average body weight ([2]; −7th day (before administration), Table 3, crude extract 300 mg/kg, others 50 mg/kg): 140.4 g
- Average body weight ([2]; −7th day (before administration), Table 6, wilfosides 50 mg/kg): 132 g
